Measured values reported in ChEMBL document CHEMBL1156873 (Bioorg Med Chem Lett, 2010).
pIC50: −log10 of the molar value. The source made the active and inactive calls. The rule behind the calls is not given here.

Columns and labels:
[1] = Half life in nude mouse microsomes; type: ADME, Microsome
[2] = tested on: LNCaP; experiment: Cytotoxicity against human LNCAP cells; type: functional, cell-based
[3] = Half life in human microsomes; type: ADME, Microsome
[4] = tested on: Mus musculus; experiment: Toxicity in nude mouse assessed as body weight change at 10 mg/kg, po daily once for 5 days; type: organism-based; design: dose 10 mg/kg, route oral; conditions: in vivo, 120 h
[5] = tested on: Mus musculus; experiment: Inhibition of mTOR in nude mouse bearing human MDA-MB-361 cells assessed as reduction of phosphorylated S6K (T389) level at 25 mg/kg, iv after 8 hrs; type: functional, organism-based; design: dose 25 mg/kg
[6] = tested on: Mus musculus; experiment: Inhibition of mTOR in nude mouse bearing human MDA-MB-361 cells assessed as reduction of phosphorylated AKT (S473) level at 25 mg/kg, iv after 8 hrs; type: functional, organism-based; design: dose 25 mg/kg
[7] = tested on: Mus musculus; experiment: Toxicity in nude mouse assessed as body weight change at 20 mg/kg, po daily once for 5 days; type: organism-based; design: dose 20 mg/kg, route oral; conditions: in vivo, 120 h
[8] = tested on: MDA-MB-361; experiment: Antitumor activity against human MDA-MB-361 cells xenografted in nude mouse assessed as inhibition of tumor growth at 20 mg/kg, po daily once for 5 days measured up to 17 days; type: functional, organism-based; design: dose 20 mg/kg
[9] = tested on: Mus musculus; experiment: Inhibition of mTOR in nude mouse bearing human MDA-MB-361 cells assessed as reduction of phosphorylated S6 (S240/244) level at 25 mg/kg, iv after 8 hrs; type: functional, organism-based; design: dose 25 mg/kg
[10] = tested on: MDA-MB-361; experiment: Antitumor activity against human MDA-MB-361 cells xenografted in nude mouse assessed as inhibition of tumor growth at 10 mg/kg, po daily once for 5 days measured up to 17 days; type: functional, organism-based; design: dose 10 mg/kg
[11] = molecular target: Serine/threonine-protein kinase mTOR (Homo sapiens, UniProt P42345); experiment: Inhibition of mTOR

| half-life [1] [min] | half-life [3] [min] | pIC50 [11] | Compound | pIC50 [2] | other results |
| --- | --- | --- | --- | --- | --- |
| > 30 |  |  | CNC(=O)Nc1ccc(-c2nc(N3CC4CCC(C3)O4)c3cnn(C4CCN(C(=O)OC)CC4)c3n2)cc1 | 7.59 |  |
| 27 | 10 |  | CCNC(=O)Nc1ccc(-c2nc(N3CC4CCC(C3)O4)c3cnn(C4CCC5(CC4)OCCO5)c3n2)cc1 | 9.00 |  |
| > 30 | 26 |  | CNC(=O)Nc1ccc(-c2nc(N3CC4CCC(C3)O4)c3cnn(C4CCC5(CC4)OCCO5)c3n2)cc1 | 8.70 | Activity [4]: Non-toxic; Activity [5]: Active; Activity [6]: Active; Activity [7]: Non-toxic; Activity [8]: Active; Activity [9]: Active; Activity [10]: Active |
| > 30 | > 30 | 9.62 | CNC(=O)Nc1ccc(-c2nc(N3CC4CCC(C3)O4)c3cnn([C@H]4CC[C@H](O)CC4)c3n2)cc1 | 7.70 |  |
| > 30 | 5 |  | CNC(=O)Nc1ccc(-c2nc(N3CC4CCC(C3)O4)c3cnn(CC(F)(F)F)c3n2)cc1 | 7.42 |  |
| > 30 | 15 | 9.42 | CNC(=O)Nc1ccc(-c2nc(N3CC4CCC(C3)O4)c3cnn([C@H]4CC[C@H](OC)CC4)c3n2)cc1 | 8.70 |  |
| 20 | 10 |  | CNC(=O)Nc1ccc(-c2nc(N3CC4CCC(C3)O4)c3cnn(C4CCC(=O)CC4)c3n2)cc1 | 7.49 |  |
| > 30 |  | 8.87 | CNC(=O)Nc1ccc(-c2nc(N3CC4CCC(C3)O4)c3cnn(C)c3n2)cc1 | 6.77 |  |
| > 30 | > 30 | 9.52 | CNC(=O)Nc1ccc(-c2nc(N3CC4CCC(C3)O4)c3cnn([C@H]4CC[C@@H](O)CC4)c3n2)cc1 | 7.70 |  |
| > 30 | 13 | 9.80 | O=C(Nc1ccccc1)Nc1ccc(-c2nc(N3CC4CCC(C3)O4)c3cnn(C4CCC5(CC4)OCCO5)c3n2)cc1 | 8.40 |  |
| > 30 | 12 | 9.92 | CNC(=O)Nc1ccc(-c2nc(N3CC4CCC(C3)O4)c3cnn(C(C)C)c3n2)cc1 | 8.30 |  |
|  |  |  | CNC(=O)Nc1ccc(-c2nc(N3CC4CCC(C3)O4)c3cnn(CCO)c3n2)cc1 | 6.19 |  |
| 17 |  |  | CNC(=O)Nc1ccc(-c2nc(N3CC4CCC(C3)O4)c3cnn([C@H]4CC[C@@H](OC)CC4)c3n2)cc1 | 9.00 |  |
| > 30 | 13 | 9.92 | O=C(Nc1ccc(-c2nc(N3CC4CCC(C3)O4)c3cnn(C4CCC5(CC4)OCCO5)c3n2)cc1)Nc1cccnc1 | 9.00 |  |
| 25 | 9 |  | O=C(Nc1ccc(-c2nc(N3CC4CCC(C3)O4)c3cnn(C4CCC5(CC4)OCCO5)c3n2)cc1)NC1CC1 | 8.70 |  |
| > 30 | 16 | 9.66 | O=C(NCCF)Nc1ccc(-c2nc(N3CC4CCC(C3)O4)c3cnn(C4CCC5(CC4)OCCO5)c3n2)cc1 | 9.00 |  |
| > 30 | 13 | 9.92 | O=C(Nc1ccncc1)Nc1ccc(-c2nc(N3CC4CCC(C3)O4)c3cnn(C4CCC5(CC4)OCCO5)c3n2)cc1 | 9.00 |  |
| 21 |  | 9.72 | CNC(=O)Nc1ccc(-c2nc(N3CC4CCC(C3)O4)c3cnn(C4CCN(C(=O)OC(C)C)CC4)c3n2)cc1 | 8.22 |  |
| 11 |  | 9.59 | CNC(=O)Nc1ccc(-c2nc(N3CC4CCC(C3)O4)c3cnn(C4CCN(C(=O)OC(C)(C)C)CC4)c3n2)cc1 | 7.57 |  |
| 15 | 30 |  | CNC(=O)Nc1ccc(-c2nc(N3CC4CCC(C3)O4)c3cnn(C4CCC(OC)(OC)CC4)c3n2)cc1 | 8.70 |  |
| > 30 |  | 9.13 | CCn1ncc2c(N3CC4CCC(C3)O4)nc(-c3ccc(NC(=O)NC)cc3)nc21 | 7.15 |  |
| > 30 | > 30 |  | CNC(=O)Nc1ccc(-c2nc(N3CC4CCC(C3)O4)c3cnn(C4CCC5(CC4)OCCCO5)c3n2)cc1 | 8.10 |  |
| 5 |  |  | CNC(=O)Nc1ccc(-c2nc(N3CC4CCC(C3)O4)c3cnn(CCN(C)C)c3n2)cc1 | 6.40 |  |
